Measured values from patent publication US20220184008A1, “MODULATORS OF INTRACELLULAR CHLORIDE CONCENTRATION” (FONDAZIONE ISTITUTO ITALIANO DI TECNOLOGIA, priority 2019, published 2022).

Experiments:
NKCC1 [1] = assay: Calcium kinetic assay in primary cultures of immature hippocampal neurons; format: cell-based; conditions: 10 μM, immature neurons 3 DIV
Procedure: FIG. 2: In vitro testing of the NKCC1 inhibitors in a calcium kinetic assay. a) Example traces of fluorescence levels upon application of GABA (100 μM) and KCl (90 mM) used to trigger calcium influx in primary neuronal cultures treated after 3 days in culture (3 DIV) with vehicle, bumetanide, furosemide and compounds 3.8, 3.13 and 3.17 in the calcium kinetic assay. b) Quantification of the average fluorescence increase upon GABA application normalized to the increase upon KCl application in neurons treated with bumetanide, furosemide and 3 exemplary compounds (3.8, 3.13, 3.17) (10 μM, 100 μM). Data represents mean±sem from 5 independent experiments, and they are presented as % of the control. *P<0.05, **P<0.01, ***P<0.001 Kruskal-Wallis Anova (Dunn's Post hoc Test).
Next, the compounds of the invention were tested for their ability to revert the depolarizing GABAergic signaling in immature neurons. This effect was indirectly measured as calcium influx into the cells with an in vitro calcium kinetic assay in primary cultures of hippocampal neurons. The calcium kinetic assay exploits the physiological, endogenous, high expression of NKCC1 in immature neurons, which causes depolarizing actions of GABA and can activate voltage-gated Ca^2+ channels. Thus, in immature neurons, a compound that blocks NKCC1 is predicted to inhibit Ca^2+ responses upon GABA application. Immature neurons were cultured for 3 days in vitro (3 DIV) and loaded for 15 min with a calcium-sensitive dye (Fluo4). Then, the neurons were treated with bumetanide and furosemide (as positive controls) or with each of the selected compounds for 15 min. As a functional readout, the fluorescence level was monitored in these cultures before and after application of GABA (100 μM, for 20 sec). To test for neuronal viability at the end of the experiment, KCl was applied (90 mM, for 40 sec), which strongly depolarizes neurons, causing high activation of voltage-gated Ca^2+ channels in live cells. To quantify how bumetanide, furosemide, and selected compounds influenced NKCC1 inhibition, the fluorescence values were normalized upon GABA application to the fluorescence levels upon KCl application in treated neurons.

NKCC1 [2] = biological target: T1, NKCC1 (Homo sapiens, UniProt P55011); assay: Chloride kinetic assay (Cl-sensitive YFP) in NKCC1-transfected HEK293 cells; format: cell-based; conditions: 10 μM; NKCC1-transfected HEK293; Table 1; read-out: NKCC1 Inhibition % 10 μM HEK Chloride YFP assay
T1 construct: expressed in transfected cells; host or cells: HEK293
T1 sequence (P55011 1-1212): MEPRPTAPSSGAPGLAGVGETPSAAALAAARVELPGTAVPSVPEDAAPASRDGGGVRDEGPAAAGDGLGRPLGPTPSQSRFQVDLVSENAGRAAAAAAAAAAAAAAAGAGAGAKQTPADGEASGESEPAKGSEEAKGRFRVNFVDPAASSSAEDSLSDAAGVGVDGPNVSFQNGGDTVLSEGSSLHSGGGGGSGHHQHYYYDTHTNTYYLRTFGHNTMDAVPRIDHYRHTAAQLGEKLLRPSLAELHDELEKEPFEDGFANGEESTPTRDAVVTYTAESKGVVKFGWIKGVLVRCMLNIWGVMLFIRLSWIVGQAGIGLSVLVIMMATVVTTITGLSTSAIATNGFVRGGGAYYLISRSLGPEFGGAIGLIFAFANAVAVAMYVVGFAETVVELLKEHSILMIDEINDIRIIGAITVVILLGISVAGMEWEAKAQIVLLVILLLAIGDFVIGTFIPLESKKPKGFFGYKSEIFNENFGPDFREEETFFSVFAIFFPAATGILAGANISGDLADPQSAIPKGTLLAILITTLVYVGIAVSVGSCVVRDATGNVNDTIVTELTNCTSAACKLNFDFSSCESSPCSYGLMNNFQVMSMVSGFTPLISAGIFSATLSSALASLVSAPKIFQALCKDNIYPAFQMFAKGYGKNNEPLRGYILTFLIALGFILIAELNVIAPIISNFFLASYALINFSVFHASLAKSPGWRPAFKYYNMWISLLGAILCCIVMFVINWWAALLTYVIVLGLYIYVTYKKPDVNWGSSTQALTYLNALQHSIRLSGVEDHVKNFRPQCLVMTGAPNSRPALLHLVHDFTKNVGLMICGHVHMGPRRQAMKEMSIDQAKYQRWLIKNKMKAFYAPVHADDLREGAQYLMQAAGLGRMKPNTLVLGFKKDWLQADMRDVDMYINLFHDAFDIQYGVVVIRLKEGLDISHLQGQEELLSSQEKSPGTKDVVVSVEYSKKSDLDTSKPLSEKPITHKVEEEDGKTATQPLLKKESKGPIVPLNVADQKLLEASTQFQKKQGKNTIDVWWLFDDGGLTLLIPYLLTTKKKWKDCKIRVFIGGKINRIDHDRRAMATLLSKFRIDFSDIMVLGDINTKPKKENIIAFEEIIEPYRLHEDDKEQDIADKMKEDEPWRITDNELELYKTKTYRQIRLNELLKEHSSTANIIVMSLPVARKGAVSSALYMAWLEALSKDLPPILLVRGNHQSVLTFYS
Procedure: FIG. 1: In vitro testing of the NKCC1 inhibitors in the chloride kinetic assay a) Example traces obtained in the chloride kinetic assay on HEK cells transfected with the YFP (mock) or with YFP and NKCC1. The arrow indicates the addition of NaCl (final concentration 74 mM) used to initiate the flux assay. b) Quantification of the effect of bumetanide (10 μM and 100 μM) or furosemide (10 μM and 100 μM) in the chloride kinetic assay on mock or NKCC1-transfected HEK293 cells. Data represents mean±sem from 5 independent experiments. c) Quantification of the effect of bumetanide and furosemide and 2 selected compounds (3.8, 3.17) in the chloride kinetic assay on NKCC1-transfected HEK293 cells. Data represents mean±sem from 5 independent experiments, and they are represented as % of the controls. *P<0.05, **P<0.01, ***P<0.001 Kruskal-Wallis Anova (Dunn's Post hoc Test); ###P<0.001 two-tailed unpaired Student t-test.
To screen in vitro the compounds efficiency in blocking NKCC1, a functional NKCC1 transporter assay was performed by measuring variation of Cl^− ion concentration in the cell through a Cl^− sensitive membrane-tagged yellow fluorescent protein (mbYFPQS, Addgene). mbYFPQS fluorescence is inversely dependent on the concentration of Cl^− inside the cell thus allowing an indirect estimation of the Cl^− transporter activity. In particular, HEK293 cells were transfected with NKCC1 or mock construct (control) together with the Cl^− sensitive YFP. After 2 DIV, the cells were treated with bumetanide and furosemide (as positive controls) or with each of the tested compounds of the invention in a Cl^− free medium. After 30 min, the inhibitory activity of the compounds was tested by monitoring fluorescence upon application of NaCl (FIG. 1a). Transported by NKCC1, Cl binds the YFP, leading to a fluorescence decrease. […] With the Cl kinetic assay, the NKCC1 inhibitory activity of the selected compounds was tested (FIG. 1c).

In the case of O=C(O)c1ccc(NCCCCCCCC(F)(F)F)c(S(=O)(=O)NC2CCCCC2)c1 [Compound 3.22, 3-(cyclohexylsulfamoyl)-4-(8,8,8-trifluorooctylamino) benzoic acid], the “NKCC1 Inhibition % 10 μM Neurons Calcium kinetic assay” value (NKCC1 [1]; Table 1) is reported as 54%, the “NKCC1 Inhibition % 10 μM Neurons Calcium kinetic assay” value (NKCC1 [1]; Table 2) is reported as 54% and the inhibition at 10 µM (NKCC1 [2]) is reported as 4%.
